# From patent US6737383B1, “Herbicidal oxadiazolidines” (priority 1999, dated 2004)
# What was measured:
# bedstraw = test: Test B pre/postemergence bedstraw; format: in vivo, Galium aparine
# Summary of the method: (§1)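 Response is a visual 0-to-10 score relative to untreated plants, where 0 means no effect and 10 means complete control, taken twelve to sixteen days after application. Treatments went onto soil at planting and onto foliage of 1- to 4-leaf plants, using a surfactant-containing non-phytotoxic solvent.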
# blackgrass = test: Test B pre/postemergence blackgrass; format: in vivo, Alopecurus myosuroides
# Summary of the method: as §1
# surinam grass = test: Test B pre/postemergence surinam grass; format: in vivo, Brachiaria decumbens
# Summary of the method: as §1
# cocklebur = test: Test B pre/postemergence cocklebur; format: in vivo, Xanthium strumarium
# Summary of the method: as §1
# corn = test: Test B pre/postemergence corn; format: in vivo, Zea mays
# Summary of the method: as §1
# crabgrass = test: Test B pre/postemergence crabgrass; format: in vivo, Digitaria sanguinalis
# Summary of the method: as §1
# pigweed = test: Test B pre/postemergence pigweed; format: in vivo, Amaranthus retroflexus
# Summary of the method: as §1
# rape = test: Test B pre/postemergence rape; format: in vivo, Brassica napus
# Summary of the method: as §1
# soybean = test: Test B pre/postemergence soybean; format: in vivo, Glycine max
# Summary of the method: as §1
# sugar beet = test: Test B pre/postemergence sugar beet; format: in vivo, Beta vulgaris
# Summary of the method: as §1
# velvetleaf = test: Test B pre/postemergence velvetleaf; format: in vivo, Abutilon theophrasti
# Summary of the method: as §1
# wheat = test: Test B pre/postemergence wheat; format: in vivo, Triticum aestivum
# Summary of the method: as §1
# wild oat = test: Test B pre/postemergence wild oat; format: in vivo, Avena fatua
# Summary of the method: as §1
# purple nutsedge = test: Test B pre/postemergence purple nutsedge; format: in vivo, Cyperus rotundus
# Summary of the method: as §1
# smallflower flatsedge = test: Test B flood test smallflower flatsedge; format: in vivo, Cyperus difformis
# Summary of the method: (§2)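 Plants were grown to the 2-leaf stage before treatment with test chemical, then held in a greenhouse for twelve to sixteen days. Injury was visually rated against untreated controls on a 0–10 scale, where 0 is no effect and 10 is complete control.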
# bamyardgrass = test: Test B flood test barnyardgrass; format: in vivo, Echinochloa crus-galli
# Summary of the method: as §2
# [1] = Preemergence, Rate 62 g/ha, scale of 0 to 10 where 0 is no effect and 10 is complete control
# [2] = Preemergence, Rate 250 g/ha, scale of 0 to 10 where 0 is no effect and 10 is complete control
# [3] = Preemergence, Rate 500 g/ha, scale of 0 to 10 where 0 is no effect and 10 is complete control
# [4] = Rate 62 g/ha, Postemergence, scale of 0 to 10 where 0 is no effect and 10 is complete control
# [5] = Rate 125 g/ha, Postemergence, scale 0 to 10
# [6] = Rate 125 g/ha, Preemergence, scale of 0 to 10 where 0 is no effect and 10 is complete control
# [7] = Rate 500 g/ha, Postemergence, scale 0 to 10, 0 no effect, 10 complete control
# [8] = Rate 62 g/ha, headed Pre-emergence (flood test species), scale 0 to 10 (0 no effect, 10 complete control)
# [9] = Rate 125 g/ha, Pre-emergence, flood test species, scale 0 to 10 where 0 is no effect and 10 is complete control
# [10] = Rate 250 g/ha, Pre-emergence, flood-test species, scale 0 to 10, 0 is no effect, 10 is complete control
# [11] = Rate 500 g/ha, Pre-emergence, flood test species, scale 0 to 10 (0 no effect, 10 complete control)
smiles,measurement,setting,value
CC(C)N(C(=O)n1oc(=O)n(C2CC2)c1=O)c1ccccc1 [Compound 243],Bedstraw plant response rating,bedstraw; [1],0
same,Bedstraw plant response rating,bedstraw; [2],5
same,"Plant response rating, Bedstraw",bedstraw; [3],9
same,Bedstraw plant response rating,bedstraw; [4],0
same,Bedstraw plant response rating,bedstraw; [5],4
same,Bedstraw plant response rating,bedstraw; [6],0
same,"Plant response rating (0 to 10; 0 is no effect, 10 is complete control), Bedstraw","bedstraw; Rate 250 g/ha, Postemergence",5
same,Bedstraw plant response rating,bedstraw; [7],5
same,Blackgrass plant response rating,blackgrass; [1],8
same,Blackgrass plant response rating,blackgrass; [2],10
same,"Plant response rating, Blackgrass",blackgrass; [3],10
same,Blackgrass plant response rating,blackgrass; [4],7
same,Blackgrass plant response rating,blackgrass; [5],8
same,Blackgrass plant response rating,blackgrass; [6],10
same,"Plant response rating (0 to 10; 0 is no effect, 10 is complete control), Blackgrass","blackgrass; Rate 250 g/ha, Postemergence",9
same,Blackgrass plant response rating,blackgrass; [7],9
same,B. signalgrass plant response rating,surinam grass; [1],4
same,B. signalgrass plant response rating,surinam grass; [2],7
same,"Plant response rating, B. signalgrass",surinam grass; [3],10
same,B. signalgrass plant response rating,surinam grass; [4],0
same,B. signalgrass plant response rating,"surinam grass; Rate 125 g/ha, Postemergence, scale 0 (no effect) to 10 (complete control)",4
same,B. signalgrass plant response rating,surinam grass; [6],5
same,"Plant response rating (0 to 10; 0 is no effect, 10 is complete control), B. signalgrass","surinam grass; Rate 250 g/ha, Postemergence",9
same,B. signalgrass plant response rating,surinam grass; [7],9
same,Cocklebur plant response rating,cocklebur; [1],0
same,Cocklebur plant response rating,cocklebur; [2],0
same,"Plant response rating, Cocklebur",cocklebur; [3],5
same,Cocklebur plant response rating,cocklebur; [4],0
same,Cocklebur plant response rating,cocklebur; [5],2
same,Cocklebur plant response rating,cocklebur; [6],0
same,"Plant response rating (0 to 10; 0 is no effect, 10 is complete control), Cocklebur","cocklebur; Rate 250 g/ha, Postemergence",4
same,Cocklebur plant response rating,cocklebur; [7],0
same,Corn plant response rating,corn; [1],2
same,Corn plant response rating,corn; [2],6
same,"Plant response rating, Corn",corn; [3],9
same,Corn plant response rating,corn; [4],0
same,Corn plant response rating,corn; [5],2
same,Corn plant response rating,corn; [6],3
same,"Plant response rating (0 to 10; 0 is no effect, 10 is complete control), Corn","corn; Rate 250 g/ha, Postemergence",5
same,Corn plant response rating,corn; [7],7
same,Crabgrass plant response rating,crabgrass; [1],7
same,Crabgrass plant response rating,crabgrass; [2],9
same,"Plant response rating, Crabgrass",crabgrass; [3],10
same,Crabgrass plant response rating,crabgrass; [4],3
same,Crabgrass plant response rating,crabgrass; [6],8
same,"Plant response rating (0 to 10; 0 is no effect, 10 is complete control), Crabgrass","crabgrass; Rate 250 g/ha, Postemergence",9
same,Crabgrass plant response rating,crabgrass; [7],9
same,Redroot pigweed plant response rating,pigweed; [1],6
same,Redroot pigweed plant response rating,pigweed; [2],10
same,"Plant response rating, Redroot pigweed",pigweed; [3],10
same,Redroot pigweed plant response rating,pigweed; [4],2
same,Redroot pigweed plant response rating,pigweed; [6],9
same,"Plant response rating (0 to 10; 0 is no effect, 10 is complete control), Redroot pigweed","pigweed; Rate 250 g/ha, Postemergence",7
same,Redroot pigweed plant response rating,pigweed; [7],7
same,Rape plant response rating,rape; [1],0
same,Rape plant response rating,rape; [2],9
same,"Plant response rating, Rape",rape; [3],10
same,Rape plant response rating,rape; [4],0
same,Rape plant response rating,rape; [6],5
same,"Plant response rating (0 to 10; 0 is no effect, 10 is complete control), Rape","rape; Rate 250 g/ha, Postemergence",2
same,Rape plant response rating,rape; [7],3
same,Soybean plant response rating,soybean; [1],0
same,Soybean plant response rating,soybean; [2],8
same,"Plant response rating, Soybean",soybean; [3],9
same,Soybean plant response rating,soybean; [4],3
same,Soybean plant response rating,soybean; [6],0
same,Soybean plant response rating,soybean; [7],8
same,Sugarbeets plant response rating,sugar beet; [1],2
same,Sugarbeets plant response rating,sugar beet; [2],7
same,"Plant response rating, Sugarbeets",sugar beet; [3],10
same,Sugarbeets plant response rating,sugar beet; [4],0
same,Sugarbeets plant response rating,sugar beet; [6],3
same,Sugarbeets plant response rating,sugar beet; [7],5
same,Velvetleaf plant response rating,velvetleaf; [1],4
same,Velvetleaf plant response rating,velvetleaf; [2],10
same,"Plant response rating, Velvetleaf",velvetleaf; [3],10
same,Velvetleaf plant response rating,velvetleaf; [4],0
same,Velvetleaf plant response rating,velvetleaf; [6],6
same,Velvetleaf plant response rating,velvetleaf; [7],7
same,Wheat plant response rating,wheat; [1],5
same,Wheat plant response rating,wheat; [2],8
same,"Plant response rating, Wheat",wheat; [3],9
same,Wheat plant response rating,wheat; [4],2
same,Wheat plant response rating,wheat; [6],8
same,Wheat plant response rating,wheat; [7],8
same,Wild oats plant response rating,wild oat; [1],3
same,Wild oats plant response rating,wild oat; [2],9
same,"Plant response rating, Wild oats",wild oat; [3],9
same,Wild oats plant response rating,wild oat; [4],0
same,Wild oats plant response rating,wild oat; [6],6
same,Wild oats plant response rating,wild oat; [7],4
same,Nutsedge plant response rating,purple nutsedge; [1],0
same,Nutsedge plant response rating,purple nutsedge; [2],0
same,Nutsedge plant response rating,purple nutsedge; [4],0
same,Nutsedge plant response rating,purple nutsedge; [6],0
same,Nutsedge plant response rating,purple nutsedge; [7],7
same,S. Flatsedge plant response rating,smallflower flatsedge; [8],0
same,S. Flatsedge plant response rating,smallflower flatsedge; [9],0
same,S. Flatsedge plant response rating,smallflower flatsedge; [10],0
same,S. Flatsedge plant response rating,smallflower flatsedge; [11],0
same,Barnyardgrass plant response rating,bamyardgrass; [8],0
same,Barnyardgrass plant response rating,bamyardgrass; [9],0
same,Barnyardgrass plant response rating,bamyardgrass; [10],0
same,Barnyardgrass plant response rating,bamyardgrass; [11],0
